Experiments:
Assay type in all cases: cell-based, human
[1] = test system: OK-CTLp or OK-CTL clone; assay: Recognition of peptide-pulsed T2 cells by OK-CTLp or OK-CTL clone (IFN-γ ELISA)
[2] = test system: peripheral blood mononuclear cells derived from a cancer patient; assay: CTL induction by peptide from autologous PBMC of cancer patient, IFN-γ production on recognition of target cells (Example 5); settings: for Recognition of tumor cells by PBMC stimulated in vitro with peptide (IFN-γ production): SW620, CA9-22 and Panc-1 HLA-A2+ tumor cells, result in words; for IFN-γ production from peripheral blood mononuclear cells in recognition of target cells: PBMC stimulated with 10 μM peptide
Source text: Among the peptides that were able to enhance IFN-γ production from the OK-CTLp or OK-CTL clone in Example 4, those from P1 to P19 were examined for their ability to induce CTL from peripheral blood mononuclear cells derived from a cancer patient. The method for inducing CTL by a peptide was according to the well-known method (J. Exp. Med., 187:277-288, 1998; Cancer Res., 59:4056-4063, 1999.) Specifically, autologous peripheral blood mononuclear cells (PBMC) derived from a cancer patient, from whom OK-CTLp was obtained, were incubated together with the peptide (10 μM.) The cells were re-stimulated at day 10 and 14 after the start of culturing, using autologous PBMCs as an antigen presenting cell (APC) which were pulsed with 10 μM of the same peptide for 2 h and exposed to irradiation (30 gray.) At day 21 after the start of culturing, the cells were collected to test for surface phenotype. In addition, the cells were examined for the recognition of various target cells, using IFN-γ production measured by ELISA when they were cultured together with the target cells as an indicator. As a target cells, SW620 cell, CA9-22 cell, and Panc-1 cell, which are the HLA-A2^+ tumor cells, were used.

[3] = test system: peripheral blood mononuclear cells derived from a cancer patient; assay: as above; settings: PBMC stimulated with 10 μM peptide

“LIMLQNALTT (LLMLQNALTT; Designed peptide having an ability to activate HLA-A2 restricted Cytotoxic T lymphocytes) [Peptide P31, Gene 7 1358-1367]” showed an IFN-γ production ([1]; concentration of peptide 0.1 μM) of 443 pg/mL and an IFN-γ production ([1]; concentration of peptide 50 μM) of 314 pg/mL.
In the case of “LLLLARWEDT (Designed peptide having an ability to activate HLA-A2 restricted Cytotoxic T lymphocytes) [Peptide P2, Gene 1 (UBE2V) 64-73]”, the “Recognition of tumor cells by PBMC stimulated in vitro with peptide (IFN-γ production)” value (“Recognition of tumor cells” below) [2] is reported as “induced CTL recognizing any one of the HLA-A2^+ tumor cells”, the “IFN-γ production from peripheral blood mononuclear cells in recognition of target cells” value (from here on “IFN-γ production … of target cells”) ([2]; target CA9-22 (HLA-A0207/24)) is reported as 0 pg/mL and the “IFN-γ production … of target cells” value ([2]; target Panc-1 (HLA-A0201/11)) is reported as 0 pg/mL. The “IFN-γ production … of target cells” value ([2]; target SW620 (HLA-A0201/24)) was 53 pg/mL, the “IFN-γ production … of target cells” value ([3]; target COLO320 (HLA-A24/24)) was 5 pg/mL and the “IFN-γ production … of target cells” value ([3]; target QG56 (HLA-A26/26)) was 0 pg/mL. The “IFN-γ production … of target cells” value ([3]; target RERF-LC-MS (HLA-A11/11)) was 0 pg/mL.
“LLQDWHVIL (Designed peptide having an ability to activate HLA-A2 restricted Cytotoxic T lymphocytes) [Peptide P4, Gene 1 (UBE2V) 201-209]” was tested, and the “Recognition of tumor cells” value [2] was “induced CTL recognizing any one of the HLA-A2^+ tumor cells”, the “IFN-γ production … of target cells” value ([2]; target CA9-22 (HLA-A0207/24)) was 0 pg/mL and the “IFN-γ production … of target cells” value ([2]; target Panc-1 (HLA-A0201/11)) was 0 pg/mL. The “IFN-γ production … of target cells” value ([2]; target SW620 (HLA-A0201/24)) was 60 pg/mL, the “IFN-γ production … of target cells” value ([3]; target COLO320 (HLA-A24/24)) was 0 pg/mL and the “IFN-γ production … of target cells” value ([3]; target QG56 (HLA-A26/26)) was 0 pg/mL. The “IFN-γ production … of target cells” value ([3]; target RERF-LC-MS (HLA-A11/11)) was 0 pg/mL.
In the case of “MLPLECQYL (Designed peptide having an ability to activate HLA-A2 restricted Cytotoxic T lymphocytes) [Peptide P12, Gene 3 (WHSC2) 157-165]”, the “Recognition of tumor cells” value [2] is reported as “induced CTL recognizing any one of the HLA-A2^+ tumor cells”, the “IFN-γ production … of target cells” value ([2]; target CA9-22 (HLA-A0207/24)) is reported as 0 pg/mL and the “IFN-γ production … of target cells” value ([2]; target Panc-1 (HLA-A0201/11)) is reported as 197 pg/mL. The “IFN-γ production … of target cells” value ([2]; target SW620 (HLA-A0201/24)) was 46 pg/mL, the “IFN-γ production … of target cells” value ([3]; target COLO320 (HLA-A24/24)) was 40 pg/mL and the “IFN-γ production … of target cells” value ([3]; target QG56 (HLA-A26/26)) was 0 pg/mL. The “IFN-γ production … of target cells” value ([3]; target RERF-LC-MS (HLA-A11/11)) was 0 pg/mL.
With “NVLHFFNAPL (Designed peptide having an ability to activate HLA-A2 restricted Cytotoxic T lymphocytes) [Peptide P9, Gene 2 (HNRPL) 501-510]” the “Recognition of tumor cells” value [2] was “produced IFN-γ in a significant amount”, the “IFN-γ production … of target cells” value ([2]; target CA9-22 (HLA-A0207/24)) was 98 pg/mL and the “IFN-γ production … of target cells” value ([2]; target Panc-1 (HLA-A0201/11)) was 339 pg/mL. The “IFN-γ production … of target cells” value ([2]; target SW620 (HLA-A0201/24)) was 194 pg/mL, the “IFN-γ production … of target cells” value ([3]; target COLO320 (HLA-A24/24)) was 0 pg/mL and the “IFN-γ production … of target cells” value ([3]; target QG56 (HLA-A26/26)) was 0 pg/mL. For the same sequence, the “IFN-γ production … of target cells” value ([3]; target RERF-LC-MS (HLA-A11/11)) was 27 pg/mL.
With “QILKGLLFL (Designed peptide having an ability to activate HLA-A2 restricted Cytotoxic T lymphocytes) [Peptide P16, Gene 5 (ppMAPkkk) 290-298]” the “Recognition of tumor cells” value [2] was “induced CTL recognizing any one of the HLA-A2^+ tumor cells”, the “IFN-γ production … of target cells” value ([2]; target CA9-22 (HLA-A0207/24)) was 147 pg/mL and the “IFN-γ production … of target cells” value ([2]; target Panc-1 (HLA-A0201/11)) was 113 pg/mL. The “IFN-γ production … of target cells” value ([2]; target SW620 (HLA-A0201/24)) was 0 pg/mL, the “IFN-γ production … of target cells” value ([3]; target COLO320 (HLA-A24/24)) was 0 pg/mL and the “IFN-γ production … of target cells” value ([3]; target QG56 (HLA-A26/26)) was 0 pg/mL. For the same sequence, the “IFN-γ production … of target cells” value ([3]; target RERF-LC-MS (HLA-A11/11)) was 0 pg/mL.
With “RIQEWCSVI (RLQEWCSVI; Designed peptide having an ability to activate HLA-A2 restricted Cytotoxic T lymphocytes) [Peptide P1, Gene 1 (UBE2V) 43-51]” the “Recognition of tumor cells” value [2] was “produced IFN-γ in a significant amount”, the “IFN-γ production … of target cells” value ([2]; target CA9-22 (HLA-A0207/24)) was 81 pg/mL and the “IFN-γ production … of target cells” value ([2]; target Panc-1 (HLA-A0201/11)) was 492 pg/mL. For the same sequence, the “IFN-γ production … of target cells” value ([2]; target SW620 (HLA-A0201/24)) was 235 pg/mL, the “IFN-γ production … of target cells” value ([3]; target COLO320 (HLA-A24/24)) was 50 pg/mL and the “IFN-γ production … of target cells” value ([3]; target QG56 (HLA-A26/26)) was 0 pg/mL. The “IFN-γ production … of target cells” value ([3]; target RERF-LC-MS (HLA-A11/11)) was 26 pg/mL.
“TLLRKERGV (Designed peptide having an ability to activate HLA-A2 restricted Cytotoxic T lymphocytes) [Peptide P13, Gene 3 (WHSC2) 267-275]” was tested, and the “Recognition of tumor cells” value [2] was “produced IFN-γ in a significant amount”, the “IFN-γ production … of target cells” value ([2]; target CA9-22 (HLA-A0207/24)) was 95 pg/mL and the “IFN-γ production … of target cells” value ([2]; target Panc-1 (HLA-A0201/11)) was 115 pg/mL. The “IFN-γ production … of target cells” value ([2]; target SW620 (HLA-A0201/24)) was 151 pg/mL, the “IFN-γ production … of target cells” value ([3]; target COLO320 (HLA-A24/24)) was 0 pg/mL and the “IFN-γ production … of target cells” value ([3]; target QG56 (HLA-A26/26)) was 0 pg/mL. The “IFN-γ production … of target cells” value ([3]; target RERF-LC-MS (HLA-A11/11)) was 15 pg/mL.

— US7524930B2, “Tumor antigen” (Green Peptide Co., Ltd, priority 2003, dated 2009)
